Data as given in publication PMC5784158, “New 2-Aryl-9-methyl-β-carbolinium salts as Potential Acetylcholinesterase Inhibitor agents: Synthesis, Bioactivity and Structure–Activity Relationship” (Scientific Reports, 2018).
Like-named read-outs stand apart in the source and are kept apart here. Marks after values point to notes of the source that are not given here.

Assays:
BuChE [1] = details: read-out: IC50 ± S.D BuChE; cited from earlier work
AChE [2] = biological target: T1, AChE (Musca domestica, UniProt Q7YWJ9); assay: Kinetic analysis of AChE inhibition (substrate ATCh); format: biochemical, fly; details: for Ki: substrate ATCh, read-out: inhibition constant Ki for AChE; for mechanism of AChE inhibition: with respect to substrate ATCh
Description: (A and B) The reciprocals of the initial reaction rates and substrate concentrations are plotted. (C and D) The slope values of the lines from graph A or C are plotted versus the inhibitor concentration, affording an equation of linear regression.

AChE [3] = biological target: T1, AChE; assay: biochemical; format: biochemical, fly; details: for IC50: read-out: IC50 ± S.D AChE
Method: AChE (E.C. 3.1.1.7) (BR, 200 u/mg) from fly’s head and BuChE (E.C. 3.1.1.8) (BR, 20 u/mg) from horse serum were purchased from Shanghai Yuanye biological technology Co. Ltd (Shanghai, China).
(§1) The inhibitory activities of the compounds against AChE were evaluated according to Ellman’s coupled enzyme assay[47] with the following modifications. 90 μL potassium phosphate buffer (PBS, 0.1 M, pH 7.4), 10 μL the solution of 2 units/mL AChE in 0.1 M PBS (pH 7.4) and 10 μL the solution of 200 μM test compounds in the mixed solution of methanol-PBS (pH 7.4) (1:9, V/V) were added to each well of a 96-well plate. The methanol-PBS solution was used as a blank control. After incubation at room temperature for 10 min, 60 μL the solution of 10 mM DTNB in PBS was added into each the well. The plate was placed on crushed ices and cooled for 20 min. To each the well was added 30 μL the solution of 7.5 mM ATCh in PBS (pH 7.4). […] Each test was performed in triplicate. Inhibition rates of the enzyme were calculated relative to a control sample. The inhibitory activities against BuChE were measured as described above for AChE, using 0.7 unit/mL BuChE and 4 mM BuTCh instead of AChE and ATCh as the enzyme and substrate, respectively.
(§2) The probit value of the average inhibition rate for each test concentration and the corresponding lg[concentration] were used to establish enzyme inhibition regression equation by the linear least-square fitting method. IC50 values were calculated from the equations.

BuChE [4] = biological target: T2, BuChE (Equus caballus, UniProt P81908); assay: BuChE inhibition, Ellman's method; format: biochemical, horse; details: read-out: IC50 ± S.D BuChE
T2 construct: BuChE (E.C. 3.1.1.8) (BR, 20 u/mg) from horse serum; purchased Shanghai Yuanye biological technology Co. Ltd (Shanghai, China); host or cells: horse serum (tissue-derived)
Description: There is increasing recognition that BuChE may play an important role in cholinergic transmission[15],[16]. While the level of AChE decreases dramatically in the advanced stage of AD, BuChE increases in brain regions involved in cognitive functions[17],[18]. At this point, BuChE is able to compensate for AChE loss by hydrolyzing ACh. These observations lead one to believe that inhibition of both AChE and BuChE may contribute to improvement of current symptomatic treatments of AD. Therefore, the compounds in Table 2 were also evaluated for BuChE inhibition activity by means of Ellman’s method. […] AChE (E.C. 3.1.1.7) (BR, 200 u/mg) from fly’s head and BuChE (E.C. 3.1.1.8) (BR, 20 u/mg) from horse serum were purchased from Shanghai Yuanye biological technology Co. Ltd (Shanghai, China).
as §1, §2

[5] = system: primary cultured porcine fetal kidney cells; assay: In vitro cytotoxicity, MTT assay; details: read-out: Cytotoxicity IC50, primary cultured porcine fetal kidney cells; 48 h
Method: (§3) In vitro cytotoxicity assay
(§4) Cytotoxic activity of the compounds was determined using MTT assay1. Primary cultured goat fetal fibroblasts and primary cultured porcine fetal kidney cells were cultured in the DMEM medium (high glucose) and a mixture culture medium consisting of 50% DMEM (high glucose) and 50% DMEM/F12, respectively, supplemented with 10% fetal bovine serum, penicillin (100 U/mL) and streptomycin (100 μg/mL) at 37 ℃ in 5% CO2. The cells at […]
(§5) After removal of the medium, the cells in each well were treated with 200 μL solution containing different concentrations of the tested compounds and vehicle controls which only received an equivalent amount of DMSO in quintuplicate for 48 h at 37 ℃. Thirty microliter of MTT solution (5 mg/mL in PBS) was added to each well with […] for an additional 4 h. After removing the supernatant, 150 μL of DMSO was added to completely dissolve the formazan crystals that had formed in viable cells in the wells. Finally, the plates were […]
(§6) containing the same media as other test wells but no cells were used as blank controls. All the doses were tested in quintuplicate and the experiments were repeated at least three times. The inhibition rates (IRs) were calculated.
(§7) (GraphPad Software Inc., San Diego, CA, USA).

[6] = system: mouse neuroblastoma N2a cells; assay: In vitro cytotoxicity, MTT assay; details: read-out: Cytotoxicity IC50, mouse neuroblastoma N2a cells; 48 h
AChE [7] = details: cited from earlier work
[8] = In vitro cytotoxicity, MTT assay; details: pig, primary cultured porcine fetal kidney cells
Method: as §3, §4, §5, §6, §7

[9] = In vitro cytotoxicity, MTT assay; details: mouse, mouse neuroblastoma N2a cells
[10] = test concentration of the compound 10 μM

T1 sequence (Q7YWJ9 81-659): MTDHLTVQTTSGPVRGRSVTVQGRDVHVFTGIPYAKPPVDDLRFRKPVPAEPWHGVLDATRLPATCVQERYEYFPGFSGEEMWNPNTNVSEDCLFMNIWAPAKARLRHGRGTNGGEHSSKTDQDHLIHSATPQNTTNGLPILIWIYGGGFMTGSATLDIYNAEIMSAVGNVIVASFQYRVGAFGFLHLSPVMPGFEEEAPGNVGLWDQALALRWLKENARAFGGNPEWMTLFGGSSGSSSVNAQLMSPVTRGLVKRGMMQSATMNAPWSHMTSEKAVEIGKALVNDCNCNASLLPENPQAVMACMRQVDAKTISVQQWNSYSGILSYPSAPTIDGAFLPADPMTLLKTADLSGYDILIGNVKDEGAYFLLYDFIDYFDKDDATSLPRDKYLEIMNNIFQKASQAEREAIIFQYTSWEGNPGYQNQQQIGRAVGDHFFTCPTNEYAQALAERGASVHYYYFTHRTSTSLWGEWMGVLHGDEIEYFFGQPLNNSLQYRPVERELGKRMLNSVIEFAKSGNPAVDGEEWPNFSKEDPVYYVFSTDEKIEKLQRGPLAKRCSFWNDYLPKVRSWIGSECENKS
T2 sequence (P81908 whole entry): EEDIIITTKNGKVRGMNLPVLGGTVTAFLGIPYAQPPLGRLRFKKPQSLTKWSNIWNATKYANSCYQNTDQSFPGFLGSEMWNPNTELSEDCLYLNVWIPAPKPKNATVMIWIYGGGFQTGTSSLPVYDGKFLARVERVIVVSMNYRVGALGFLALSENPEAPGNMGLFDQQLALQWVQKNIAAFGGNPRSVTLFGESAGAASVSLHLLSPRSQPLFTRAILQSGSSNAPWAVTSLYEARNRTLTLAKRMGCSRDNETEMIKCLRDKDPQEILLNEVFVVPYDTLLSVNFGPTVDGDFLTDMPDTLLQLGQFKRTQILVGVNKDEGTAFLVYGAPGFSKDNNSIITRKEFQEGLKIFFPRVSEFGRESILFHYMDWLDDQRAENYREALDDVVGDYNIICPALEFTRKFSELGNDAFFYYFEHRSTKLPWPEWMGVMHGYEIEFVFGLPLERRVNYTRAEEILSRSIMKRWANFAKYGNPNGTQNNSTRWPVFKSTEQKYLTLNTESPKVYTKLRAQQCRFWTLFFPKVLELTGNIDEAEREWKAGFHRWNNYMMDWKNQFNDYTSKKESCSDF

SMILES | SI: selectivity index, ratio IC50 (BuChE)/IC50 (AChE) (AChE [3]) | Inhibition rate (%) (AChE [3]; [10]) | IC50 (BuChE [4]) | IC50 (AChE [3]) | other results
CC(=O)SCC[N+](C)(C)C [acetylthiocholine iodide, Acetylthiocholine iodide, reference compound] |  |  |  |  | Km (AChE [2]; substrate): 163 µM
Cn1c2ccccc2c2cc[n+](-c3ccc(Br)cc3Br)cc21.[Br-] [Compound B33, 9-Methyl-2-(2,4-dibromophenyl)-β-carboline bromide] | 278.2 | 96.7 ± 0.05 a % | 30.6 ± 2.31 µM |  | IC50 [5]: > 20 µM; IC50 [6]: 10.6 µM
Cc1ccc(-[n+]2ccc3c4ccccc4n(C)c3c2)cc1.[Br-] [Compound B22, 9-Methyl-2-(4-methylphenyl)-β-carboline bromide] | 111.6 | 95.2 ± 0.5 abc % | 32.2 ± 1.65 µM |  | IC50 [5]: 18.1 µM; binding capacity with AChE relative to substrate ATCh (AChE [2]; Km of ATCh versus Ki): ~3835 fold; binding capacity with AChE relative to A22 (AChE [2]; ratio of Ki values): approximately 11 fold; Ki (AChE [2]): 0.0425 µM; mechanism of AChE inhibition (AChE [2]): competitive; IC50 [6]: 19.2 µM
Cn1c2ccccc2c2cc[n+](-c3ccccc3F)cc21.[Br-] [Compound B2, 9-Methyl-2-(2-fluorophenyl)-β-carboline bromide] | 3.49 | 59.8 ± 3.2 n % | 23 ± 0.53 µM | 6.65 ± 1.07 µM | 
COc1ccc(-[n+]2ccc3c4ccccc4n(C)c3c2)cc1.[Br-] [Compound B19, 9-Methyl-2-(4-methoxylphenyl)-β-carboline bromide] | 72.3 | 90.7 ± 0.8 def % | 34 ± 2 µM | 0.47 ± 0.04 µM | 
Cn1c2c(c3ccccc31)CC[N+](c1ccc(I)cc1)=C2.[Br-] [Compound A13] | 9.80 | 54.2 ± 3.2 ef % | 53.8 ± 2.51 µM | 5.5 ± 0.37 µM | 
Cn1c2ccccc2c2cc[n+](-c3ccc(Br)cc3F)cc21.[Br-] [Compound B32, 9-Methyl-2-(2-fluoro-4-bromophenyl)-β-carboline bromide] | 385.0 | 92.8 ± 1.0 abc % | 116 ± 18.2 µM |  | 
COc1ccc2c(c1)c1c(n2C)C=[N+](c2ccccc2)CC1.[Br-] [Compound A34] | 18.4 | 68.4 ± 2.8 c % | 37.6 ± 2.84 µM | 2.04 ± 0.33 µM | 
Cn1c2ccccc2c2cc[n+](-c3cccc(F)c3)cc21.[Br-] [Compound B3, 9-Methyl-2-(3-fluorophenyl)-β-carboline bromide] | 15.3 | 70.5 ± 2.2 l % | 72.4 ± 4.25 µM | 4.73 ± 0.33 µM | 
Cn1c2ccccc2c2cc[n+](-c3ccc(O)cc3)cc21.[Br-] [Compound B16, 9-Methyl-2-(4-hydroxyhenyl)-β-carboline bromide] | 45.3 | 82.1 ± 2.5 ij % | 67.9 ± 11.5 µM | 1.5 ± 0.19 µM | 
Cn1c2ccccc2c2cc[n+](-c3ccc(I)cc3)cc21.[Br-] [Compound B13, 9-Methyl-2-(4-iodohenyl)-β-carboline bromide] | 168.3 | 93.8 ± 0.4 abcd % | 40.4 ± 1.83 µM |  | 
Cn1c2c(c3ccccc31)CC[N+](c1ccccc1)=C2.[Br-] [Compound A1] | 0.54 | 40.9 ± 2.1 ij % | 10.1 ± 1.66 µM | 18.6 ± 2.93 µM | 
CC(C)n1c2c(c3ccccc31)CC[N+](c1ccccc1)=C2.[Br-] [Compound A40] | 4.37 | 68.9 ± 5.1 bc % | 16.3 ± 0.56 µM | 3.73 ± 0.34 µM | 
C1=[N+](c2ccccc2)CCc2c1[nH]c1ccccc21.[Br-] [Compound A46] |  | 41.3 ± 1.4 ij % | 3.9 ± 0.53 µM | 18.2 ± 1.97 µM | 
Cc1ccccc1-[n+]1ccc2c3ccccc3n(C)c2c1.[Br-] [Compound B20, 9-Methyl-2-(2-methylphenyl)-β-carboline bromide] | 15.9 | 59.6 ± 3.2 n % | 154 ± 9.1 µM | 9.71 ± 0.55 µM | 
Nc1c2c(nc3cc(Cl)ccc13)C[C@H]1C=C(CCO)C[C@@H]2C1 [huprine W] |  |  |  |  | IC50 (AChE [7]; inhibitor co-crystallised with AChE (PDB 4BDT), reference not given, read-out: IC50 AChE): 0.0011 µM
Cc1ccc([N+]2=Cc3c(c4ccccc4n3C)CC2)cc1 [Compound A22] | 55.2 |  | 80.1 ± 5.27 µM | 1.45 ± 0.21 µM | inhibition at 10 µM (AChE [3]; test concentration of the compound 10 μM, read-out: Inhibition rate (%)): 77.6 ± 1.5%; IC50 at 48 h [8]: 5.18 µM; Ki (AChE [2]): 0.483 µM; mechanism of AChE inhibition (AChE [2]): competitive; IC50 at 48 h [9]: 2.13 µM
